The values that follow come from patent US20080206367A1, “Morinda Citrifolia-based Formulations and Methods for Weight Management” (priority 2004, published 2008).

For this test, the target named is T1, CCK1 receptor (Rattus norvegicus, UniProt P30551).
T1 construct: from tissue; host or cells: live male rats (in vivo; gastrointestinal tract)
T1 sequence (P30551 1-444): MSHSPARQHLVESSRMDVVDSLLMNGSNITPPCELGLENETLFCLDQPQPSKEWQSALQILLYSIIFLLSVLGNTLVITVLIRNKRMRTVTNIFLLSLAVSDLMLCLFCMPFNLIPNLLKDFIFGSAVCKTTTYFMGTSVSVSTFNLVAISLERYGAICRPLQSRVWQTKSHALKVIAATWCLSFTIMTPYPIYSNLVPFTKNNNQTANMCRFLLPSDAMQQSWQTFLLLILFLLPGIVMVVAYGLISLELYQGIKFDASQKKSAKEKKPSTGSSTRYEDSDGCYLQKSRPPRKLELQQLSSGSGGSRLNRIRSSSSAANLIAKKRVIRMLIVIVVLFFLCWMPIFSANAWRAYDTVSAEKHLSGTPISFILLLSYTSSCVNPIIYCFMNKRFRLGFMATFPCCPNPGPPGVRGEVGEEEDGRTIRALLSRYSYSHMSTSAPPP
As to the kind of experiment: Effects of lorglumide on noni-mediated inhibition of gastric emptying and intestinal transit. The following applies: lorglumide i.p. 15 min before test meal, rats given noni 1 ml/kg orally for 7 days. The class given is in vivo. The protocol:
Male rats were divided into four groups and fasted for 24 h before use. Fifteen min before gastric intubation of a non-nutrient liquid meal, the animals were injected i.p. with the following compounds in 1 ml/kg: group 1 received dimethyl sulfoxide (DMSO), […], respectively. Groups 2-4 received 1 ml/kg of noni orally once daily for 7 days.
Gastric emptying and intestinal transit were measured. Rats were intubated via a catheter with physiological saline (3 ml/kg) containing Na2^51CrO4 (0.5 μCi/ml) and 10% charcoal. The test meal was continuously stirred before intubation. Air (0.5 ml) was injected to flush the residual charcoal suspension in the catheter into rat stomach. Fifteen minutes later, the rats were decapitated and the stomach with the attached small intestine was immediately exposed by laparotomy. […] The small intestine was then divided into ten equal segments, and the radioactivity in the stomach and each segment of small intestine was measured in an automatic gamma counter. Gastric emptying was measured by determining the amount of labeled chromium contained in the small intestine fifteen minutes after intubation, expressed as a percentage of the amount given. Intestinal transit was assessed by calculating the geometric center of distribution of the radioactivity within the 10 segments by summation of the radioactivity in each segment multiplied by the segment number.

Molecules are shown by their SMILES.

Take `CCCCCN(CCCCC)C(=O)C(CCC(=O)O)NC(=O)c1ccc(Cl)c(Cl)c1` (centres unmarked) [lorglumide]: the “Noni-induced inhibition of intestinal transit” value is listed as “not altered”. The “Noni-induced inhibition of gastric emptying” value (P<0.01) is given as “significantly prevented”.
